# Assay results taken from article PMC12461739, “Multi-targeted azacoumarin–cyanocinnamate hybrids induce G2/M arrest and apoptosis via tubulin, and COX-2/VEGFR modulation: insights from in vitro mechanistic basis and in vivo validation” (RSC Medicinal Chemistry, 2025).
# “And” between values parts separate entries of the source, which are not always exact repeats. Identical values can stand only once. Like-named read-outs stand apart in the source and are kept apart here.
# Columns and labels:
# Bax = assay: qRT-PCR gene expression, Bax; type: cell-based, human; details: MCF-7, 7.653 μM, 24 h
# Procedure: Untreated cells served as negative controls. RNA concentration and purity were verified spectrophotometrically prior to cDNA synthesis. Complementary DNA (cDNA) was synthesized from purified RNA using the RT^2 First Strand Kit (Qiagen, Valencia, CA, USA) following the supplied protocol. Quantitative real-time PCR (qRT-PCR) was performed on a Corbett Rotor-Gene 6000 system (Qiagen, USA) using the RT^2 SYBR® Green ROX™ FAST Master Mix (Qiagen). Each 25 μL reaction contained 12.5 μL of master mix, 1 μL of gene-specific primers (RT^2 qPCR Primer Assays, Qiagen), 1 μL of cDNA template, and 10.5 μL of RNase-free water. Gene-specific primers were selected using the PrimerBank database for BAX, BCL2, and TP53, along with GAPDH as the endogenous control (Table S3). Thermal cycling conditions were set as follows: initial enzyme activation at 95 °C for 10 minutes, followed by 40 cycles of denaturation at 95 °C for 15 seconds, and annealing at 60 °C for 30 seconds. Amplification specificity was confirmed by melting curve analysis. Gene expression levels were normalized to GAPDH mRNA as the internal reference, and relative quantification was performed using the ΔΔCt method. […] Statistical analysis was performed using GraphPad Prism software, with p < 0.05 considered statistically significant.[79]
# COX-1 = biological target: T1, COX-1 (Ovis aries, UniProt P05979); assay: COX-1 inhibitor screening (fluorometric); type: biochemical; details: read-out: IC50 toward COX-1
# T1 construct: purchased BioVision K548-100
# T1 sequence (P05979 25-600): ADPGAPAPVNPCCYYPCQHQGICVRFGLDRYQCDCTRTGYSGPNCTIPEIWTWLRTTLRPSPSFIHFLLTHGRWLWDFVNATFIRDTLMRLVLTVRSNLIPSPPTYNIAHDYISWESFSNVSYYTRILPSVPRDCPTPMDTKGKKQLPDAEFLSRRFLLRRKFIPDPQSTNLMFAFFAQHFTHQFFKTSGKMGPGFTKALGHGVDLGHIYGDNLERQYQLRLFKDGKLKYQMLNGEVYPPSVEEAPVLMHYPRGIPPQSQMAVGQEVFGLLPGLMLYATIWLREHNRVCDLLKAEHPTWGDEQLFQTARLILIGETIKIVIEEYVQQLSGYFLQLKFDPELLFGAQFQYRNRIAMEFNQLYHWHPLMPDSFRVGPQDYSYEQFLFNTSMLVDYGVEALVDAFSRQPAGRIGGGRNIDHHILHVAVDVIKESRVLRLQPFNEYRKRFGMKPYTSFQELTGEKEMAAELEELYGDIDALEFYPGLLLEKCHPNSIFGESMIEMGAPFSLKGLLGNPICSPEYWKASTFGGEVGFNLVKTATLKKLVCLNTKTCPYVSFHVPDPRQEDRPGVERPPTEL
# Procedure: COX-1 and COX-2 enzymes were reconstituted in sterile water (110 μL) and kept on ice until use. Arachidonic acid was activated by mixing 5 μL with 5 μL of NaOH, followed by a 10-fold dilution with water and vortexing. A reaction mixture (80 μL per well) was prepared by combining 76 μL of assay buffer, 1 μL of COX probe, 2 μL of 200-fold diluted COX cofactor, and 1 μL of COX-1 or COX-2 enzyme. This mix was added to each well, followed by 10 μL of the prepared arachidonic acid/NaOH solution to initiate the reaction. Fluorescence was recorded at 25 °C using a microplate reader. The percent inhibition was determined by comparing the fluorescence increase in treated wells relative to the enzyme control. IC50 values were calculated from the concentration–response curves using GraphPad Prism.
# TNF-α = assay: Serum TNF-α ELISA
# Procedure: (§2) All animals were maintained under conventional laboratory conditions, including a controlled temperature of 22 ± 2 °C and a 12 hour light/dark photoperiod, with continuous access to standard pellet chow and water. On day 11, following the final treatment, ascitic fluid was collected from the peritoneal cavity using heparinized syringes for EAC cell viability and count analysis. Blood samples were collected under light ether anesthesia via the retro-orbital venous plexus and centrifuged at 3000 rpm for 10 minutes. The resulting serum was separated and stored at −20 °C for biochemical analysis.
# Briefly, 96-well microplates pre-coated with a TNF-α-specific capture antibody were loaded with standards and serum samples, followed by incubation to allow antigen binding. After washing, a biotin-labeled detection antibody was added, followed by an avidin–HRP conjugate to amplify the signal. The enzymatic reaction was developed using a TMB substrate and stopped with an acidic solution. Absorbance was measured at 450 nm using the ELISA microplate reader. TNF-α concentrations were calculated by plotting sample absorbance values against a standard curve and expressed in pg mL^−1. All measurements were performed in triplicate, and data were presented as mean ± SD.
# MCF-7 cells = assay: MTT antiproliferative assay, MCF-7; type: cell-based, human; details: MTT, 48 h treatment, read-out: IC50, antiproliferative activity toward MCF-7
# Procedure: (§1) The cytotoxic effects of the synthesized compounds were evaluated using the MTT assay. MCF-7, MDA-MB 231 (human breast cancer), and MCF-10A (non-tumorigenic breast epithelial) cells were seeded (1–3 × 10^4 cells per well) and incubated for 24 hours at 37 °C in a humidified atmosphere containing 5% CO2.[74] Following incubation, cells were treated with serial dilutions of the test compounds prepared in DMSO. The final concentration of DMSO in all wells, including controls, was maintained below 0.5% v/v to avoid solvent-related cytotoxicity. Doxorubicin was used as a positive control for comparison of antiproliferative activity. Following 48 hours of treatment, the culture medium was gently removed, and each well received 20 μL of MTT reagent (5 mg mL^−1 in phosphate-buffered saline). The plates were incubated at 37 °C for 4 hours to facilitate the enzymatic reduction of MTT into formazan by metabolically active cells. After incubation, the solution was discarded, and 100 μL of dimethyl sulfoxide was added. The absorbance of each well was measured at 570 nm using a microplate spectrophotometer. Cell viability was determined by comparing absorbance values to those of the untreated controls and expressed as a percentage. GraphPad Prism software was used to plot dose–response curves and calculate IC50 values.
# VEGFR-II = assay: Serum VEGFR-II ELISA
# Procedure: as §2
# Serum VEGFR-2 levels were quantified using a rat VEGFR-2 ELISA kit (Cusabio®, China; Catalog No. CSB-E07348r), based on a quantitative sandwich enzyme immunoassay format. Samples were added to 96-well plates pre-coated with a monoclonal antibody specific for VEGFR-2 and incubated to enable antigen binding. After washing to remove unbound material, a biotin-conjugated detection antibody was added, followed by an avidin–HRP complex. The enzymatic reaction was developed using TMB substrate and stopped with an acidic solution. Absorbance was measured at 450 nm using a microplate reader. The VEGFR-2 concentrations in the samples were calculated using a standard curve fitted with a four-parameter logistic (4-PL) regression model and expressed in nanograms per milliliter (ng mL^−1).
# [1] = MTT cytotoxicity assay, MCF-10A; type: cell-based, human; details: human, MCF-10A non-tumorigenic breast epithelial cells, MTT, 48 h treatment, non-tumorigenic breast epithelial cells; read-out: IC50, cytotoxicity toward MCF-10A
# Procedure: as §1, with “MCF-7, MDA-MB 231 (human breast cancer), and MCF-10A (non-tumorigenic breast epithelial) cells were seeded (1–3 × 10^4 cells per well) and incubated for 24 hours at 37 °C in a humidified atmosphere containing 5% CO2.[74]” left out
# MCF-10A cells = assay: MTT cytotoxicity assay, MCF-10A; type: cell-based, human
# Procedure: as §1, with “MCF-7, MDA-MB 231 (human breast cancer), and MCF-10A (non-tumorigenic breast epithelial) cells were seeded (1–3 × 10^4 cells per well) and incubated for 24 hours at 37 °C in a humidified atmosphere containing 5% CO2.[74]” left out
smiles,measurement,setting,value
"CCOC(=O)/C(C#N)=C/c1ccc(Oc2c(C)c3cc(Br)c(O)c(Br)c3[nH]c2=O)cc1 [Compound 7, ethyl (E)-2-cyano-3-(4-((6,8-dibromo-7-hydroxy-4-methyl-2-oxo-1,2-dihydroquinolin-3-yl)oxy)phenyl)acrylate]",Bax expression relative to untreated control,Bax,5.22 fold
same,IC50,COX-1,7.49 µM and 7.5 µM
same,serum TNF-α,"TNF-α; EAC + compound 7 (10 mg kg^−1 i.p.), EAC control 156.80 ± 4.71",56.42 ± 2.01 pg/mL
same,serum TNF-α,"TNF-α; compound 7-only control group, no EAC",29.37 ± 1.33 pg/mL
same,IC50,"MCF-7 cells; Homo sapiens, MCF7, 48 h",7.65 µM
same,IC50,MCF-7 cells,7.65 µM and 7.6 µM
same,serum VEGFR-II,"VEGFR-II; EAC + compound 7 (10 mg kg^−1 i.p.), EAC control 85.61 ± 2.47",30.66 ± 1.31 ng/mL
same,serum VEGFR-II,"VEGFR-II; compound 7-only control group, no EAC, untreated 18.23 ± 0.81",14.03 ± 0.45 ng/mL
same,IC50 at 48 h,[1],52 µM
same,selectivity index toward breast cancer cells,MCF-10A cells; MCF-10A vs MCF-7 / MDA-MB 231,5.3 to 6.8
same,IC50,"MCF-10A cells; MTT, 48 h treatment, non-tumorigenic breast epithelial cells, read-out: IC50, cytotoxicity toward MCF-10A",52.1 ± 1.76 µM
